# Data: ChEMBL document CHEMBL1148992, “KB cell culture I. Role in discovery of antitumor agents from higher plants” (1982)
# Test system: KB
# Experiment: Cytotoxicity against human KB cells
# Assay type: functional
# Details: read-out: ED50 (the source's name)
row,SMILES,EC50
1,COc1ccc2[nH]c3c(C)c4ccncc4c(C)c3c2c1,8.7 µg/mL
2,COc1ccc2cc1Oc1ccc(cc1)C[C@H]1c3cc(c(OC)cc3CCN1C)Oc1c(OC)c(OC)cc3c1[C@@H](C2)N(C)CC3,10 µg/mL
3,COc1ccc2cc1Oc1ccc(cc1)C[C@H]1c3cc(c(OC)cc3CCN1C)Oc1c(OC)c(OC)cc3c1C(C2)N(C)CC3 (mixture of isomers),22 µg/mL
4,COc1ccc(C[C@H]2C(=O)N[C@@H](C)C(=O)N(C)[C@@H]3C(=O)N(C)[C@@H](Cc4ccc(O)c(c4)Oc4ccc(cc4)[C@@H]3O)C(=O)N[C@@H](C)C(=O)N[C@@H](C)C(=O)N2C)cc1 [BOUVARDIN],8.8 µg/mL
5,COC(=O)[C@@]12OC[C@]34[C@H]([C@@H](O)[C@@H]1O)[C@@]1(C)CC(=O)C(O)=C(C)[C@@H]1C[C@H]3OC(=O)[C@H](OC(=O)/C=C(\C)C(C)C)[C@@H]24 [BRUCEANTIN],17 µg/mL
6,CC[C@@]1(O)C(=O)OCc2c1cc1n(c2=O)Cc2cc3ccccc3nc2-1 [CAMPTOTHECIN],2.3 µg/mL
7,COc1cc2c(c(OC)c1OC)-c1ccc(OC)c(=O)cc1[C@@H](NC(C)=O)CC2 [COLCHICINE],0.23 µg/mL
8,CN[C@H]1CCc2cc(OC)c(OC)c(OC)c2-c2ccc(OC)c(=O)cc21 [DEMECOLCINE],< 0.25 µg/mL
9,Cc1c2ccncc2c(C)c2c1[nH]c1ccccc12 [ELLIPTECINE],0.36 µg/mL
10,CC[C@H]1CN2CCc3cc(OC)c(OC)cc3[C@@H]2C[C@@H]1C[C@H]1NCCc2cc(OC)c(OC)cc21 [EMETINE],< 1 µg/mL
11,CC(=O)O[C@H]1C(=O)O[C@@H]2C[C@H]3C(C)=CC(=O)[C@@H](O)[C@]3(C)[C@H]3[C@]4(O)OC[C@]32[C@@H]1[C@@H](C)[C@H]4O [HOLACANTHONE],6.8 µg/mL
12,COc1cc2cc(c1Cl)N(C)C(=O)C[C@H](OC(=O)[C@H](C)N(C)C(C)=O)[C@]1(C)O[C@H]1[C@H](C)[C@@H]1C[C@@](O)(NC(=O)O1)[C@H](OC)/C=C/C=C(\C)C2 [MAYTANSINE],0.51 µg/mL
13,C[C@H]1C(=O)O[C@@H]2CCN3CC=C(COC(=O)[C@](C)(O)[C@]1(C)O)[C@H]23 [MONOCROTALINE],> 100 µg/mL
14,COc1cc2c[n+](C)c3c4cc5c(cc4ccc3c2cc1OC)OCO5.[Cl-] [NITIDINE CHLORIDE],4.3 µg/mL
15,COC(=O)C[C@](O)(CCCC(C)(C)O)C(=O)O[C@@H]1C(OC)=C[C@]23CCCN2CCc2cc4c(cc2[C@H]13)OCO4 [OMACETAXINE MEPESUCCINATE],3.9 µg/mL
16,CC(=O)O[C@H]1C(=O)[C@@]2(C)[C@H]([C@H](OC(=O)c3ccccc3)[C@]3(O)C[C@H](OC(=O)[C@H](O)[C@@H](NC(=O)c4ccccc4)c4ccccc4)C(C)=C1C3(C)C)[C@]1(OC(C)=O)CO[C@@H]1C[C@@H]2O [PACLITAXEL],8.9 µg/mL
17,COc1cc([C@@H]2c3cc4c(cc3[C@H](O)[C@H]3COC(=O)[C@H]23)OCO4)cc(OC)c1OC [PODOFILOX],< 1 µg/mL
18,COc1cc(C[C@H]2c3cc(OC)c(OC)cc3CCN2C)c(Oc2cc3c(cc2OC)-c2c(OC)c(OC)cc4c2[C@H](C3)N(C)CC4)cc1OC [THALICARPINE],3.7 µg/mL
19,CC(C)[C@]12O[C@H]1[C@@H]1O[C@]13[C@]1(O[C@H]1C[C@H]1C4=C(C(=O)OC4)[C@@H](O)C[C@@]13C)[C@@H]2O [TRIPDIOLIDE],2.8 µg/mL
20,CC(C)[C@]12O[C@H]1[C@@H]1O[C@]13[C@]1(O[C@H]1C[C@H]1C4=C(CC[C@@]13C)C(=O)OC4)[C@@H]2O [TRIPTOLIDE],2.6 µg/mL
21,COc1cc2c3c(c4ccc(OC)c(OC)c4c2cc1OC)CN1CCC[C@@H]1C3 [TYLOCREBRINE],0.013 µg/mL
22,CC[C@]1(O)C[C@H]2CN(CCc3c([nH]c4ccccc34)[C@@](C(=O)OC)(c3cc4c(cc3OC)N(C=O)[C@H]3[C@@](O)(C(=O)OC)[C@H](OC(C)=O)[C@]5(CC)C=CCN6CC[C@]43[C@@H]65)C2)C1 [VINCRISTINE],1.3 µg/mL

# Test system: P388
# Experiment: In vivo cytotoxicity against mouse P388 cells relative to control
# Assay type: functional
# Details: not given
row,SMILES,T/C
1,COc1cc2c[n+](C)c3c4cc(OC)c(OC)cc4ccc3c2cc1OC,200%
2,COc1cc2c(ccc3c4cc(OC)c(OC)cc4c[n+](C)c23)cc1O.[Cl-] [FAGARONINE],270%
3,Cc1cc2c(C(C)C)c(O)c(O)c(C=O)c2c(O)c1-c1c(C)cc2c(C(C)C)c(O)c(O)c(C=O)c2c1O [GOSSYPOL],150%
4,CC(C)[C@](O)(C(=O)OCC1=CC[N+]2([O-])CC[C@@H](O)[C@@H]12)[C@H](C)O (stereo partly specified) [INDICINE N-OXIDE],262%
